Target: T1, ZmOMT1 (Zea mays, UniProt Q768R5)
T1 construct: gene ZmpOMT1; full-length CDS with C-terminal AcV5 tag kept; expressed in transgenic rice (Oryza sativa indica IR64) leaf mesophyll; total leaf membrane protein reconstituted into liposomes; calculated ~60 kDa, 40 kDa on blot
T1 sequence (Q768R5 81-578): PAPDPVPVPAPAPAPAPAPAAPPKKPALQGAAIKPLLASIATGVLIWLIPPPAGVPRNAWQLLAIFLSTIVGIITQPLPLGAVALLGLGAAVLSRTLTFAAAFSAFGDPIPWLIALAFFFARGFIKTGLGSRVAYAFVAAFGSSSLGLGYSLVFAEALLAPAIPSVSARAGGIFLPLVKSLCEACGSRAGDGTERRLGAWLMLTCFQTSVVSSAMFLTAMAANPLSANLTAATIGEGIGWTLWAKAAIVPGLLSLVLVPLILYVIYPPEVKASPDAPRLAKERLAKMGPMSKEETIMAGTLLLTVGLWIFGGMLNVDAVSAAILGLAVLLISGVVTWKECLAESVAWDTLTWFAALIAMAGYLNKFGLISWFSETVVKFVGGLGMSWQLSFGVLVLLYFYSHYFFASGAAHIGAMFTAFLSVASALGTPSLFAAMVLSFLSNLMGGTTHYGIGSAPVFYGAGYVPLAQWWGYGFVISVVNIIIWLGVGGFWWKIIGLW
Assay: […]malate uptake into proteoliposomes, malate/malate counterexchange
Type: biochemical
Details: pH 7.5; 30 mM malate preloaded inside; 0.3 mM external [14C]malate; total leaf membrane protein of transgenic rice versus wild type (native rice transporters present); labelled compound

Compound: O=C(O)C[C@H](O)C(=O)O [malate]
- [14C]malate uptake into proteoliposomes, malate/malate counterexchange: significantly higher malate–malate counterexchange activity in liposomes reconstituted with membrane proteins from overexpression lines
